From US8415351B2 (priority 2007, dated 2013)
Where two headings read alike, the source gives them in different places.

Key:
[1] = system: genotype 1b-Con1 subgenomic replicon cell line; test: microbe, parasite or virus in culture; type: cell-based, HCV; settings: read-out: EC50 1b
[2] = system: genotype 1a-H77 subgenomic replicon cell line; test: microbe, parasite or virus in culture; type: cell-based, HCV; settings: read-out: EC50 1a
[3] = biological target: T1, HCV polymerase 1A (Δ21 NS5B, H77) (Hepatitis C virus genotype 1a, UniProt P27958); test: biochemical
T1 construct: 20 to 50 nM Δ21 NS5B
T1 sequence (P27958 2421-2990, stated change not applied): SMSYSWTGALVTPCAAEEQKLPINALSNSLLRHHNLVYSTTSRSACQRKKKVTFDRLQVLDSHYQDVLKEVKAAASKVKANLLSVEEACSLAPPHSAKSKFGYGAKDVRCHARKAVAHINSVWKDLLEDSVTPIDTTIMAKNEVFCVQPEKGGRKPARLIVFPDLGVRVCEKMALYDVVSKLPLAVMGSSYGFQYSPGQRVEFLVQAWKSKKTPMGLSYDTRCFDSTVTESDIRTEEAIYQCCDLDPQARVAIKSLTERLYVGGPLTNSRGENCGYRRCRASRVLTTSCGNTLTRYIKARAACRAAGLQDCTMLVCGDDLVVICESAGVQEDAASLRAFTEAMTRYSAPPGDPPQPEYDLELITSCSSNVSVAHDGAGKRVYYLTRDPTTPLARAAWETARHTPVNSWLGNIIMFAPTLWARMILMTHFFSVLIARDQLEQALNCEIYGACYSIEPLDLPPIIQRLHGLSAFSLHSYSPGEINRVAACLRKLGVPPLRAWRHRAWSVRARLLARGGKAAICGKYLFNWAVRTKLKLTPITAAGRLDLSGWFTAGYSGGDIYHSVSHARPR
How it was run: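 Incorporation of 1 μM ^3H-UTP, with 20 μM each of CTP and ATP on 5 nM template RNA, ran 2–4 h at room temperature. Spermine-precipitated product was filtered and scintillation-counted. IC50 came from tight-binding non-linear regression of cpm against inhibitor concentration.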

[4] = biological target: T2, HCV polymerase 1B (Δ21 NS5B, BK) (Hepatitis C virus genotype 1b, UniProt P26663); test: biochemical
T2 construct: 20 to 50 nM Δ21 NS5B
T2 sequence (P26663 2420-2989, stated change not applied): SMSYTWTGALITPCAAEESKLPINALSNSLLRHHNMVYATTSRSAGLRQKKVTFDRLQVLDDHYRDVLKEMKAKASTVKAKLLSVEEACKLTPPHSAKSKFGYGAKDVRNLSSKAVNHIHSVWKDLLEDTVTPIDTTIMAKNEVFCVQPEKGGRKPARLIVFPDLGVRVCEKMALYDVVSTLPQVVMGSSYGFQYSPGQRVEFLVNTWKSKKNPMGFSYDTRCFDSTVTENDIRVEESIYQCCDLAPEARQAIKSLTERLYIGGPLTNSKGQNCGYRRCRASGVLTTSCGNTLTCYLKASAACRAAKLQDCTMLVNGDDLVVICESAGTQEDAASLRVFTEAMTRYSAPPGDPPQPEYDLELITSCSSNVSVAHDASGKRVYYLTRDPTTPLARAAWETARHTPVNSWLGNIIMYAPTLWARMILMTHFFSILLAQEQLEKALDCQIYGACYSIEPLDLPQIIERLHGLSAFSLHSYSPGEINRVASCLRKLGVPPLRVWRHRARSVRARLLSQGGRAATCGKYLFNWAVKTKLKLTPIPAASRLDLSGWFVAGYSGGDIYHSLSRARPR
How it was run: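 Δ21 NS5B (genotype 1b, BK […]) preincubated 15 min RT with inhibitor, 2 mM MnCl2, pH 7.4, 60–125 μM GTP; started with 20 μM CTP/ATP, 1 μM 3H-UTP, 5 nM template RNA, run 2–4 h RT. Spermine-precipitated RNA filter-captured, scintillation counted; IC50 from tight-binding (Morrison) fit.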

COc1c(-c2ncc(-c3cccc(NS(C)(=O)=O)c3)o2)cc(N2CCC(=O)NC2=O)cc1C(C)(C)C [IA-L0-1.9, N-(3-(2-(3-tert-butyl-5-(2,4-dioxotetrahydropyrimidin-1(2H)-yl)-2-methoxyphenyl)oxazol-5-yl)phenyl)methanesulfonamide]
EC50 ([1]; Hepatitis C virus): 100 to 1000 nM
EC50 ([2]; Hepatitis C virus): > 1000 nM
IC50 ([3]; IC50 1a): 10 to 100 nM
IC50 [4]: 100 to 1000 nM

COc1c(/C=C\c2ccc(NS(C)(=O)=O)cc2)cc(N2CCC(=O)NC2=O)cc1C(C)(C)C [IA-L1-1.10, (Z)-N-(4-(3-tert-butyl-5-(2,4-dioxotetrahydropyrimidin-1(2H)-yl)-2-methoxystyryl)phenyl)methanesulfonamide]
EC50 ([1]; Hepatitis C virus): 10 to 100 nM
EC50 ([2]; Hepatitis C virus): 10 to 100 nM
IC50 ([3]; IC50 1a): 10 to 100 nM
IC50 [4]: 10 to 100 nM

COc1c(/C=C\c2ccc(NS(C)(=O)=O)cc2)cc(N2CCC(=O)NC2=O)cc1C(C)(C)C [IA-L1-1.20, (Z)—N-(4-(3-tert-butyl-5-(2,4-dioxotetrahydropyrimidin-1(2H)-yl)-2-methoxystyryl)phenyl)methanesulfonamide]
EC50 [1]: 10 to 100 nM
EC50 [2]: 10 to 100 nM
IC50 ([3]; IC50 1a): < 10 nM
IC50 ([4]; read-out: IC50 1b, HCV polymerase 1b): 10 to 100 nM

COc1cc(NS(C)(=O)=O)ccc1/C=C/c1cc(N2CCC(=O)NC2=O)cc(C(C)(C)C)c1OC [IA-L1-1.27, N-(4-{(E)-2-[3-tert-Butyl-5-(dioxo-tetrahydro-pyrimidin-1-yl)-2-methoxy-phenyl]-vinyl}-3-methoxy-phenyl)-methanesulfonamide]
EC50 ([1]; genotype 1b-Con1 replicon, luciferase reporter): < 10 nM
EC50 ([2]; genotype 1a-H77 replicon, luciferase reporter): 10 to 100 nM
IC50 ([3]; read-out: IC50 1a): < 10 nM
IC50 ([4]; HCV polymerase 1b, read-out: IC50 1b): 10 to 100 nM

CC(C)(C)c1cc(C#Cc2ccc(NS(C)(=O)=O)cc2)cc(N2CCC(=O)NC2=O)c1 [IA-L2-1.1, N-(4-((3-tert-butyl-5-(2,4-dioxotetrahydropyrimidin-1(2H)-yl)phenyl)ethynyl)phenyl)-methanesulfonamide]
EC50 ([1]; Hepatitis C virus): 10 to 100 nM
EC50 ([2]; Hepatitis C virus): 100 to 1000 nM
IC50 ([3]; IC50 1a): 10 to 100 nM
IC50 [4]: < 10 nM

Cc1cc(NS(C)(=O)=O)ccc1C#Cc1cc(N2CCC(=O)NC2=O)cc(C(C)(C)C)c1 [IA-L2-1.2, N-(4-((3-tert-butyl-5-(2,4-dioxotetrahydropyrimidin-1(2H)-yl)phenyl)ethynyl)-3-methyl-phenyl)methanesulfonamide]
EC50 ([1]; Hepatitis C virus): 10 to 100 nM
EC50 ([2]; Hepatitis C virus): 10 to 100 nM
IC50 ([3]; IC50 1a): < 10 nM
IC50 [4]: < 10 nM

CC(C)(C)c1cc(C#Cc2ccc(NS(C)(=O)=O)cc2Cl)cc(N2CCC(=O)NC2=O)c1 [IA-L2-1.3, N-(4-((3-tert-butyl-5-(2,4-dioxotetrahydropyrimidin-1(2H)-yl)phenyl)ethynyl)-3-chlorophenyl)methanesulfonamide]
EC50 ([1]; Hepatitis C virus): < 10 nM
EC50 ([2]; Hepatitis C virus): 10 to 100 nM
IC50 ([3]; IC50 1a): < 10 nM
IC50 [4]: < 10 nM

COc1c(C#Cc2ccccc2)cc(N2CCC(=O)NC2=O)cc1C(C)(C)C [IA-L2-1.4, 1-(3-tert-butyl-4-methoxy-5-(phenylethynyl)phenyl)dihydropyrimidine-2,4(1H,3H)-dione]
EC50 ([1]; Hepatitis C virus): 100 to 1000 nM
EC50 ([2]; Hepatitis C virus): 100 to 1000 nM
IC50 ([3]; IC50 1a): 100 to 1000 nM
IC50 [4]: 100 to 1000 nM

COc1c(C#Cc2cccc(NS(C)(=O)=O)c2)cc(N2CCC(=O)NC2=O)cc1C(C)(C)C [IA-L2-1.7, N-(3-((3-tert-butyl-5-(2,4-dioxotetrahydropyrimidin-1(2H)-yl)-2-methoxyphenyl)ethynyl)phenyl)methanesulfonamide]
EC50 ([1]; Hepatitis C virus): 100 to 1000 nM
EC50 ([2]; Hepatitis C virus): > 1000 nM
IC50 ([3]; IC50 1a): 10 to 100 nM
IC50 [4]: 10 to 100 nM

COc1c(C#Cc2ccc(NS(C)(=O)=O)cc2)cc(N2CCC(=O)NC2=O)cc1C(C)(C)C [IA-L2-1.8, N-(4-((3-tert-butyl-5-(2,4-dioxotetrahydropyrimidin-1(2H)-yl)-2-methoxyphenyl)ethynyl)-phenyl)methanesulfonamide]
EC50 ([1]; Hepatitis C virus): < 10 nM
EC50 ([2]; Hepatitis C virus): 10 to 100 nM
IC50 ([3]; IC50 1a): < 10 nM
IC50 [4]: < 10 nM

COc1c(C#Cc2ccc(NS(C)(=O)=O)cc2C)cc(N2CCC(=O)NC2=O)cc1C(C)(C)C [IA-L2-1.9, N-(4-((3-tert-butyl-5-(2,4-dioxotetrahydropyrimidin-1(2H)-yl)-2-methoxyphenyl)ethynyl)-3-methylphenyl)methanesulfonamide]
EC50 ([1]; Hepatitis C virus): < 10 nM
EC50 ([2]; Hepatitis C virus): < 10 nM
IC50 ([3]; IC50 1a): < 10 nM
IC50 [4]: < 10 nM

COc1c(C#Cc2ccc(NS(C)(=O)=O)c(C)c2)cc(N2CCC(=O)NC2=O)cc1C(C)(C)C [IA-L2-1.10, N-(4-((3-tert-butyl-5-(2,4-dioxotetrahydropyrimidin-1(2H)-yl)-2-methoxyphenyl)ethynyl)-2-methylphenyl)methanesulfonamide]
EC50 ([1]; Hepatitis C virus): 10 to 100 nM
EC50 ([2]; Hepatitis C virus): 100 to 1000 nM
IC50 ([3]; IC50 1a): 10 to 100 nM
IC50 [4]: 10 to 100 nM

CCc1cc(NS(C)(=O)=O)ccc1C#Cc1cc(N2CCC(=O)NC2=O)cc(C(C)(C)C)c1OC [IA-L2-1.11, N-(4-((3-tert-butyl-5-(2,4-dioxotetrahydropyrimidin-1(2H)-yl)-2-methoxyphenyl)ethynyl)-3-ethylphenyl)methanesulfonamide]
EC50 ([1]; Hepatitis C virus): < 10 nM
EC50 ([2]; Hepatitis C virus): < 10 nM
IC50 ([3]; IC50 1a): < 10 nM
IC50 [4]: 10 to 100 nM

COc1c(C#Cc2ccc(NS(C)(=O)=O)cc2F)cc(N2CCC(=O)NC2=O)cc1C(C)(C)C [IA-L2-1.12, N-(4-((3-tert-butyl-5-(2,4-dioxotetrahydropyrimidin-1(2H)-yl)-2-methoxyphenyl)ethynyl)-3-fluorophenyl)methanesulfonamide]
EC50 ([1]; Hepatitis C virus): < 10 nM
EC50 ([2]; Hepatitis C virus): 10 to 100 nM
IC50 ([3]; IC50 1a): < 10 nM
IC50 [4]: < 10 nM

COc1c(C#Cc2ccc(NS(C)(=O)=O)c(F)c2)cc(N2CCC(=O)NC2=O)cc1C(C)(C)C [IA-L2-1.13, N-(4-((3-tert-butyl-5-(2,4-dioxotetrahydropyrimidin-1(2H)-yl)-2-methoxyphenyl)ethynyl)-2-fluorophenyl)methanesulfonamide]
EC50 ([1]; Hepatitis C virus): 10 to 100 nM
EC50 ([2]; Hepatitis C virus): 100 to 1000 nM
IC50 ([3]; IC50 1a): < 10 nM
IC50 [4]: < 10 nM

COc1c(C#Cc2ccc(NS(C)(=O)=O)cc2Cl)cc(N2CCC(=O)NC2=O)cc1C(C)(C)C [IA-L2-1.14, N-(4-((3-tert-butyl-5-(2,4-dioxotetrahydropyrimidin-1(2H)-yl)-2-methoxyphenyl)ethynyl)-3-chlorophenyl)methanesulfonamide]
EC50 ([1]; Hepatitis C virus): < 10 nM
EC50 ([2]; Hepatitis C virus): < 10 nM
IC50 ([3]; IC50 1a): < 10 nM
IC50 [4]: < 10 nM

COc1c(C#Cc2ccc(NS(C)(=O)=O)c(Cl)c2)cc(N2CCC(=O)NC2=O)cc1C(C)(C)C [IA-L2-1.15, N-(4-((3-tert-butyl-5-(2,4-dioxotetrahydropyrimidin-1(2H)-yl)-2-methoxyphenyl)ethynyl)-2-chlorophenyl)methanesulfonamide]
EC50 ([1]; Hepatitis C virus): 100 to 1000 nM
EC50 ([2]; Hepatitis C virus): 100 to 1000 nM
IC50 ([3]; IC50 1a): 10 to 100 nM
IC50 [4]: 10 to 100 nM

COc1cc(NS(C)(=O)=O)ccc1C#Cc1cc(N2CCC(=O)NC2=O)cc(C(C)(C)C)c1OC [IA-L2-1.16, N-(4-((3-tert-butyl-5-(2,4-dioxotetrahydropyrimidin-1(2H)-yl)-2-methoxyphenyl)ethynyl)-3-methoxyphenyl)methanesulfonamide]
EC50 ([1]; Hepatitis C virus): < 10 nM
EC50 ([2]; Hepatitis C virus): 10 to 100 nM
IC50 ([3]; IC50 1a): < 10 nM
IC50 [4]: 10 to 100 nM

COc1c(C#Cc2ccc(NS(C)(=O)=O)c(OC(F)(F)F)c2)cc(N2CCC(=O)NC2=O)cc1C(C)(C)C [IA-L2-1.17, N-(4-((3-tert-butyl-5-(2,4-dioxotetrahydropyrimidin-1(2H)-yl)-2-methoxyphenyl)ethynyl)-2-(trifluoromethoxy)phenyl)methanesulfonamide]
EC50 ([1]; Hepatitis C virus): 10 to 100 nM
EC50 ([2]; Hepatitis C virus): 100 to 1000 nM
IC50 ([3]; IC50 1a): 10 to 100 nM
IC50 [4]: 10 to 100 nM
